Results as given in patent US12440451B2, “Compositions and methods using an epigenetic inhibitor” (DANA-FARBER CANCER INSTITUTE, INC., priority 2017, dated 2025).

Experiments:
[1] = tested on: OT-I+ CD8+ T cells; test: APC-free T cell activation with anti-CD3 and anti-CD28 antibodies, flow cytometry; assay type: cell-based, mouse; settings: anti-CD3 and anti-CD28 or BMDC+SIINFEKL activation; 7 days; relative to DMSO
Source text: It was important to determine whether the observed effect of RGFP966 on CD8^+ T cells post-activation was due to the drug acting on T cells, on the antigen-presenting cells, or both. To do so, the effect of RGFP966 treatment on CD8^+ T cells activated was compared in parallel using either antigen-pulsed BMDCs or antibodies against CD3 and CD28. The latter method of activating T cells is free of APCs and allowed determination of whether the effect of RGFP966 required the presence of APCs.
96-well tissue culture plates were coated with 10 μg/ml α-CD3 antibodies overnight at 4° C., then washed with PBS prior to addition of OT-I^+ CD8^+ T cells (2×10^5/well) and α-CD28 antibody (2 μg/ml) (labeled as anti-CD3 and anti-CD28). OT-I^+ CD8^+ T cells from the same batch of cells were also activated in parallel on antigen-loaded BMDCs (labeled as BMDC+SIINFEKL (SEQ ID NO: 1)) were prepared as described above. T cells were activated for 7 days, with media changes on days 3 and 5, then collected for flow cytometry phenotype analysis.

[2] = tested on: OT-I+ CD8+ T cells; test: proliferation of activated T cells (total number of live cells by flow cytometry); assay type: cell-based, mouse; settings: FIG. 3
Experimental: T cells treated with RGFP966 also show increased proliferation relative to untreated T cells. FIG. 3 is a bar chart the total number of live cells detected in flow cytometry for activated OT-I^+ CD8^+ T cells that have been treated with 10 μM, 1 μM RGFP966, and no RGFP966 (vehicle control).

[3] = tested on: H3K9-Ac and H3K27-Ac in CD8+ T cells; test: ChIP-qPCR for H3K9ac and H3K27ac at promoter regions of 32 effector function genes; assay type: cell-based, mouse; settings: 3 μM, 5 days
Experimental: Chromatin was extracted from sorted CD8^+ T cells activated with or without RGFP966 for 5 days as described in FIG. 1 and Example 1 above, and chromatin immunoprecipitation (ChIP) was performed for H3K9ac and H3K27 markers.
Immunoprecipitated chromatin was analyzed using quantitative real-time PCR (qPCR) with primer probes for the promoter regions of a custom set of 32 genes known to be associated with various aspects of CD8^+ T cell effector function (effector cytokines, cytotoxicity, regulatory transcription factors, as well as positive and negative controls for data quality control). […] Histogram bars are presented in pairs for each marker, with the left hand bar of each pair (gray) representing data from untreated CD8^+ T cells and the right hand bar of each pair (black) representing data from CD8^+ T cells treated with 3 μM RGF966.

[4] = tested on: B16-Ova cells; test: in vitro 51Cr release cytotoxicity assay of activated OT-I+ CD8+ T cells against target cells; assay type: cell-based, mouse; settings: for specific lysis of cells expressing target antigen: 4 hours co-incubation, FIG. 4A
Experimental: In order to functionally assess the phenotype of OT-I^+ CD8^+ T cells activated in the presence of RGFP966, the ability of the activated T cells to kill B16 melanoma tumor cell targets expressing the cognate SIINFEKL (SEQ ID NO: 1) antigen of the OT-I TCR was assayed. The B16-Ova cells were engineered to express chicken ovalbumin in their cytosol, and express SIINFEKL (SEQ ID NO: 1) on Kb MHC I molecules when treated with IFN-γ. In preparation for the cytotoxicity assay, B16-Ova cells were treated with 10 ng/ml IFN-γ for 48 hours prior to harvest and loading with ^51Cr radionuclide. After radiolabeling, B16-Ova cells were seeded into 96-well plates (5×10^3/well) and allowed to adhere for 1 hour prior to addition of CD8^+ effector cells. OT-I^+ CD8^+ T cells were activated as described above using SIINFEKL-pulsed BMDCs in the presence of 10 μM, 1 μM, or 0 μM RGFP966. After 7 days of activation, T cells were harvested, washed to remove the drug, and counted. OT-I^+ CD8^+ effector cells were added to the assay plates containing B16-Ova target cells at the indicated ratios: there was no drug present during the cytotoxicity assay. Specific killing of targets was assessed by measurement of 51Cr release into the culture supernatant 4 hours after co-culture. To verify that genetic ablation of HDAC3 functionally recapitulated the augmented cytotoxic effector phenotype of HDAC3 inhibition using RGFP966, HDAC3-KO T cells were generated from OT-I^+ CD8^+ Cas9^+ T cells as described above, and compared with RGFP966-treated T cells from the same batch in an in vitro cytotoxicity assay.

[5] = tested on: human CD8+ T cells; test: activation of human CD8+ T cells with anti-CD3 and anti-CD28, flow cytometry; assay type: cell-based; settings: 10 μM; 7 days
Experimental: Further investigation was conducted to discover whether the augmented cytotoxic effector phenotype observed in mouse CD8^+ T cells post-activation with HDAC3 inhibition was also true in human CD8^+ T cells. Total CD8^+ T cells were negatively isolated from the peripheral blood of healthy human donors, and activated in vitro using plate-bound anti-CD3 and soluble anti-CD28 antibodies in the presence or absence of 0 μM (vehicle control) or 10 μM RGFP966. Following 7 days of in vitro activation, without additional IL-2 supplementation, CD8^+ T cells were analyzed by flow cytometry for expression of markers associated with T cell activation, effector cytokines, and cytotoxicity. The results are summarized in the graphs of FIG. 13A.

[6] = tested on: H3K27-ac in CD8+ T cells; test: H3K27-ac ChIP-sequencing of activated CD8+ T cells; assay type: cell-based, mouse; settings: days 5 and 7 post-activation
Experimental: ChIP-sequencing was then performed to survey the genomic landscape of H3K27 acetylation in the absence or the presence of HDAC3 activity on days 5 and 7 post-activation using the same in vitro activation co-culture system as in as described in FIG. 1 and Example 1 above.
FIGS. 9C-9H show H3K27-ac ChIP-sequence tracks, from top to bottom: naïve CD8^+ T cells (day 0): control-treated cells, day 5 post-activation: RGFP966-treated cells, day 5 post-activation: control-treated cells, day 7 post-activation: RGFP966-treated cells, day 7 post-activation. Arrows under gene names indicate direction of transcription. Tracks were visualized with the IGV genome browser (Broad Institute, MA).

[7] = tested on: other HDACs; settings: reported; cited from earlier work

Structure (SMILES): Nc1cc(F)ccc1NC(=O)/C=C/c1cnn(C/C=C/c2ccccc2)c1 [RGFP966]
- T cell effector phenotype (CD25, granzyme B, IFN-γ, TNF-α, IL-2) [1]: augmented their T cell effector phenotype across both methods of T cell activation
- T cell proliferation (total number of live cells) ([2]; 1 μM): increasing T cell proliferation over vehicle control
- T cell proliferation (total number of live cells) ([2]; 10 μM): increasing T cell proliferation as compared to T cells treated with 1 μM RGFP966
- histone acetylation at GZMB, FASL, TBX21, PRDM1 and ID2 [3]: most significant changes in histone acetylation
- H3K9 and H3K27 acetylation at promoters of IFN-γ, TNF-α and IL-2 ([3]; not always significant): generally had increased H3K9 and H3K27 acetylation
- killing of cognate antigen-expressing target cells ([4]; T cells activated in the presence of the drug, dose-dependent): kill cognate antigen-expressing target cells more effectively than untreated cells
- cytotoxicity compared with control treatment ([4]; T cells activated with 1 μM): modest but non-significant increase in cytotoxicity
- specific lysis of cells expressing target antigen ([4]; T cells activated with 1 μM): about 45%
- specific lysis of cells expressing target antigen ([4]; T cells activated with 10 μM): ~70%
- expression of CD25 [5]: upregulation
- expression of CD44 [5]: upregulation
- expression of granzyme B [5]: upregulation
- H3K27-ac at GzmB, Fasl, ID2, PRDM1 and TBX21 [6]: increased H3K27-ac
- H3K27-ac at RUNX3 [6]: increased H3K27-ac
- H3K27ac at loci of effector cytokines, EOMES and BCL6 ([6]; data not shown): no significant changes
- concentration range at which other HDACs are not inhibited [7]: < 15 µM
